Measured values: patent publication US20250215029A1 (Recludix Pharma, Inc., priority 2022, published 2025)
Read-outs that look alike come from different tables or passages of the source.

How the values were obtained:
[1] = molecular target: T1, Recombinant STAT3 protein (STAT3 (G127-I722)) (Homo sapiens, UniProt P40763); assay: STAT3 Fluorescence Polarization (FP) Assay; assay type: binding; settings: probe 5-FAM-GpYLPQTV-NH2 2 nM, 45-minute incubation
T1 construct: Recombinant STAT3 protein (STAT3 (G127-I722))
Method in brief: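 Displacement of a 2 nM 5-FAM-labelled pY peptide (GpYLPQTV) from 25 nM recombinant STAT3 (G127-I722) was monitored by fluorescence polarization. Incubation lasted 45 min at room temperature in pH 7.4 HEPES buffer containing 1% DMSO.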

[2] = molecular target: T2, Recombinant STAT6 protein (STAT6 (W123-T658)) (Homo sapiens, UniProt P42226); assay: STAT6 Fluorescence Polarization (FP) Assay; assay type: binding; settings: probe 5-FAM-Ap[…]-NH2 2 nM, 45-minute incubation
T2 construct: Recombinant STAT6 protein (STAT6 (W123-T658))
T2 sequence (P42226 123-658): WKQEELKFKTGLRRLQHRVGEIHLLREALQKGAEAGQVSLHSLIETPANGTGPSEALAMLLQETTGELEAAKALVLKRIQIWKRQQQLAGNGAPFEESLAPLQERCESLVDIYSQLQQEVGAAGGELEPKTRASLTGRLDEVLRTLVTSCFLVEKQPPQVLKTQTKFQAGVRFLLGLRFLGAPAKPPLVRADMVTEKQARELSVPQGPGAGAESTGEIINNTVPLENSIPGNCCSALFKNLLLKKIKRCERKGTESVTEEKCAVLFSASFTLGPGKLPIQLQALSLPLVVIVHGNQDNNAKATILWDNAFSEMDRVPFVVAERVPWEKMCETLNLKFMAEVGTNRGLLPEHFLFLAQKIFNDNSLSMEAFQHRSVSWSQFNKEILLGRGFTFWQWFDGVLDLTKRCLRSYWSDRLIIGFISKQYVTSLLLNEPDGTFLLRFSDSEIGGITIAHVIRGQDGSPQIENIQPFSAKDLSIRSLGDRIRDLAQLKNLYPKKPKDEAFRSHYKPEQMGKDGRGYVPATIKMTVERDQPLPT
Method in brief: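 Serially diluted compounds received a premix of STAT6 (W123-T658, 250 nM) and 5-FAM peptide probe (2 nM) in pH 7.4 HEPES buffer containing DTT and Tween 20. Following 45 min at room temperature, FP was recorded. IC50s were fitted by nonlinear regression; values are binned A (≤300 nM), B (>300-3000 nM), C (>3-30 μM), D (>30 μM).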

[3] = STAT3 25 nM, read-out: STAT3 (FP assay IC50)
[4] = STAT6 250 nM, read-out: STAT6 (FP assay IC50)
[5] = STAT3 (G127-I722) 25 nM, read-out: STAT3 (FP assay IC50 class)
[6] = STAT6 (W123-T658) 250 nM, read-out: STAT6 (FP assay IC50 class)

T1 sequence (P40763 127-722): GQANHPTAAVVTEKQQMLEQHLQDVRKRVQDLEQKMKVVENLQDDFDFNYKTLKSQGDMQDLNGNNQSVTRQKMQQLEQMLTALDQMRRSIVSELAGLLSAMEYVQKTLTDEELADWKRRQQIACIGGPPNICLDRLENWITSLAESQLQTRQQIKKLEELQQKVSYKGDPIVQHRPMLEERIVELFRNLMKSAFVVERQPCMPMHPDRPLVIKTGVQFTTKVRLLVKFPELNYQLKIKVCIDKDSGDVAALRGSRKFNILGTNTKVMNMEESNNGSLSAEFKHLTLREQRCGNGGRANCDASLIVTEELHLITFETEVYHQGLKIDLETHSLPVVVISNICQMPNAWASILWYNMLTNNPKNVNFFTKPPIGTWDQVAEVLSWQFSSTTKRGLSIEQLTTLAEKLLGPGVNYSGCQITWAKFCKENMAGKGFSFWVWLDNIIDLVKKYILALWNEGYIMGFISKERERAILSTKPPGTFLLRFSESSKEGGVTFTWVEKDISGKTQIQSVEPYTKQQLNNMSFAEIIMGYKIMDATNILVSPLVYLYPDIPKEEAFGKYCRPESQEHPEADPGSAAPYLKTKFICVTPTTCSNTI

SMILES | IC50 [1, 3] [µM] | IC50 [2, 4] [µM] | IC50 [1, 5] [µM] | IC50 [2, 6] [µM]
O=C(N[C@H]1CCCC[C@H]2CC[C@@H](C(=O)N3CCN(C(=O)c4cn[nH]c4)CC3)N2C1=O)c1cc2cc(C(F)(F)P(=O)(O)O)ccc2s1 [Compound 118B, ((2-(((3S,6S,10a S)-3-(4-(1H-pyrazole-4-carbonyl)piperazine-1-carbonyl)-5-oxodecahydro-pyrrolo [1,2-a]azocin-6-yl)carbamoyl)benzo[b]thiophen-5-yl)difluoromethyl) phosphonic acid] | 0.1 to 1 | 0.3 to 3 | – | –
CC(=O)N1C[C@H](NC(=O)[C@@H]2CC[C@@H]3CCC[C@H](NC(=O)c4cc5cc(C(F)(F)P(=O)(O)O)ccc5s4)C(=O)N32)[C@@H](O)C1 [Compound 120, ((2-(((3S,6S,9aS)-3-(((3S,4S)-1-acetyl-4-hydroxypyrrolidin-3-yl)carbamoyl)-5-oxooctahydro-1H-pyrrolo[1,2-a]azepin-6-yl)carbamoyl)benzo[b]thiophen-5-yl)difluoromethyl) phosphonic acid] | 0.1 to 1 | 0.3 to 3 | – | –
O=C(N[C@H]1CCC[C@H]2CC[C@@H](C(=O)Nc3ccc(-c4ccccc4)cc3)N2C1=O)c1cc2cc(C(F)(F)P(=O)(O)O)ccc2s1 [Compound 121, ((2-(((3S,6S,9aS)-3-([1,1′-biphenyl]-4-ylcarbamoyl)-5-oxooctahydro-1H-pyrrolo[1,2-a]azepin-6-yl)carbamoyl)benzo[b]thiophen-5-yl)difluoromethyl) phosphonic acid] | 0.1 to 1 | 0.3 to 3 | – | –
CCCC(=O)NC1(c2ccccn2)CN(C(=O)[C@@H]2CC[C@@H]3CCCC[C@H](NC(=O)c4cc5cc(C(F)(F)P(=O)(O)O)ccc5s4)C(=O)N32)C1 [Compound 122, ((2-(((3S,6S,10aS)-3-(3-butyramido-3-(pyridin-2-yl)azetidine-1-carbonyl)-5-oxodecahydropyrrolo[1,2-a]azocin-6-yl)carbamoyl)benzo[b]thiophen-5-yl)difluoromethyl)phosphonic acid] | < 0.1 | 3 to 30 | – | –
O=C(N[C@H]1CCC[C@H]2CC[C@@H](C(=O)N3CCn4cncc4C3)N2C1=O)c1cc2cc(C(F)(F)P(=O)(O)O)ccc2s1 [Compound 203, (difluoro(2-(((3S,6S,9aS)-5-oxo-3-(5,6,7,8-tetrahydroimidazo[1,5-a]pyrazine-7-carbonyl)octahydro-1H-pyrrolo[1,2-a]azepin-6-yl)carbamoyl)benzo[b]thiophen-5-yl)methyl)phosphonic acid] | – | – | 0.1 to 1 | 0.3 to 3
COc1ccncc1C1CN(C(=O)[C@@H]2CC[C@@H]3CCC[C@H](NC(=O)c4cc5cc(C(F)P(=O)(O)O)ccc5s4)C(=O)N32)C1 (stereo partly drawn) [Compound 206, (fluoro(2-(((3S,6S,9aS)-3-(3-(4-methoxypyridin-3-yl)azetidine-1-carbonyl)-5-oxooctahydro-1H-pyrrolo[1,2-a]azepin-6-yl)carbamoyl)benzo[b]thiophen-5-yl)methyl)phosphonic acid] | – | – | < 0.1 | 3 to 30
O=C(N[C@H]1CCC[C@H]2CC[C@@H](C(=O)N3CC(c4cccnc4)C3)N2C1=O)c1cc2nc(CP(=O)(O)O)ccc2s1 [Compound 208, ((2-(((3S,6S,9aS)-5-oxo-3-(3-(pyridin-3-yl)azetidine-1-carbonyl)octahydro-1H-pyrrolo[1,2-a]azepin-6-yl)carbamoyl)thieno[3,2-b]pyridin-5-yl)methyl)phosphonic acid] | – | – | 1 to 10 | 3 to 30
COc1ccncc1C1CN(C(=O)[C@@H]2CC[C@@H]3C[C@H](C(C)C)CC[C@H](NC(=O)c4cc5cc(C(F)P(=O)(O)O)ccc5s4)C(=O)N32)C1 (stereo partly drawn) [Compound 211, (fluoro(2-(((3S,6S,9R,10aR)-9-isopropyl-3-(3-(4-methoxypyridin-3-yl)azetidine-1-carbonyl)-5-oxodecahydropyrrolo[1,2-a]azocin-6-yl)carbamoyl)benzo[b]thiophen-5-yl)methyl)phosphonic acid] | – | – | < 0.1 | 3 to 30
COC[C@@H]1CCN1c1ccncc1C1CN(C(=O)[C@@H]2CC[C@@H]3CCC[C@H](NC(=O)c4cc5cc(CP(=O)(O)O)ccc5s4)C(=O)N32)C1 [Compound 213, ((2-(((3S,6S,9aS)-3-(3-(4-((S)-2-(methoxymethyl)azetidin-1-yl)pyridin-3-yl)azetidine-1-carbonyl)-5-oxooctahydro-1H-pyrrolo[1,2-a]azepin-6-yl)carbamoyl)benzo[b]thiophen-5-yl)methyl)phosphonic acid] | – | – | < 0.1 | 3 to 30
Cc1ccncc1C1CN(C(=O)[C@@H]2CC[C@@H]3CCC[C@H](NC(=O)c4cc5cc(CP(=O)(O)O)ccc5s4)C(=O)N32)C1 [Compound 214, ((2-(((3S,6S,9aS)-3-(3-(4-methylpyridin-3-yl)azetidine-1-carbonyl)-5-oxooctahydro-1H-pyrrolo[1,2-a]azepin-6-yl)carbamoyl)benzo[b]thiophen-5-yl)methyl)phosphonic acid] | – | – | 0.1 to 1 | 3 to 30

Further lines, results first:

IC50 [1, 3] [µM] | IC50 [2, 4] [µM] | IC50 [1, 5] [µM] | IC50 [2, 6] [µM] | SMILES
0.1 to 1 | 3 to 30 | – | – | O=C(N[C@H]1CCC[C@H]2CC[C@@H](C(=O)N3CC(C4CCOCC4)C3)N2C1=O)c1cc2cc(C(F)(F)P(=O)(O)O)ccc2s1 [Compound 119, (difluoro(2-(((3S,6S,9aS)-5-oxo-3-(3-(tetrahydro-2H-pyran-4-yl)azetidine-1-carbonyl)octahydro-1H-pyrrolo[1,2-a]azepin-6-yl)carbamoyl)benzo[b]thiophen-5-yl)methyl) phosphonic acid]
< 0.1 | 3 to 30 | – | – | O=C(N[C@H]1CCCC[C@H]2CC[C@@H](C(=O)N3CC(NC(=O)C4CC4)(c4ccccn4)C3)N2C1=O)c1cc2cc(C(F)(F)P(=O)(O)O)ccc2s1 [Compound 123, ((2-(((3S,6S, 10aS)-3-(3-(cyclopropane-carboxamido)-3-(pyridin-2-yl)azetidine-1-carbonyl)-5-oxodeca-hydropyrrolo [1,2-a]azocin-6-yl)carbamoyl)benzo[b]thiophen-5-yl)difluoromethyl) phosphonic acid]
< 0.1 | 3 to 30 | – | – | O=C(CCC(F)(F)F)NC1(c2ccccn2)CN(C(=O)[C@@H]2CC[C@@H]3CCCC[C@H](NC(=O)c4cc5cc(C(F)(F)P(=O)(O)O)ccc5s4)C(=O)N32)C1 [Compound 124, (difluoro(2-(((3S,6S, 10aS)-5-oxo-3-(3-(pyridin-2-yl)-3-(4,4,4-trifluoro-butanamido)azetidine-1-carbonyl)decahydro-pyrrolo [1,2-a]azocin-6-yl)carbamoyl)benzo[b]thiophen-5-yl)methyl) phosphonic acid]
– | – | < 0.1 | 3 to 30 | CCc1ccncc1C1CN(C(=O)[C@@H]2CC[C@@H]3CCC[C@H](NC(=O)c4cc5cc(C(F)P(=O)(O)O)ccc5s4)C(=O)N32)C1 (stereo partly drawn) [Compound 205, ((2-(((3S,6S,9aS)-3-(3-(4-ethylpyridin-3-yl)azetidine-1-carbonyl)-5-oxooctahydro-1H-pyrrolo[1,2-a]azepin-6-yl)carbamoyl)benzo[b]thiophen-5-yl)fluoromethyl)phosphonic acid]
– | – | < 0.1 | 3 to 30 | C[C@H]1C[C@H]2CC[C@@H](C(=O)N3CC(c4cnccc4F)C3)N2C(=O)[C@@H](NC(=O)c2cc3cc(C(F)P(=O)(O)O)ccc3s2)C1 (stereo partly drawn) [Compound 207, (fluoro(2-(((3S,6S,8R,9aR)-3-(3-(4-fluoropyridin-3-yl)azetidine-1-carbonyl)-8-methyl-5-oxooctahydro-1H-pyrrolo[1,2-a]azepin-6-yl)carbamoyl)benzo[b]thiophen-5-yl)methyl)phosphonic acid]
– | – | < 0.1 | 0.3 to 3 | C[C@@H]1C[C@H]2CC[C@@H](C(=O)N3CC(c4cnccc4F)C3)N2C(=O)[C@@H](NC(=O)c2cc3cc(C(F)P(=O)(O)O)ccc3s2)C1 (stereo partly drawn) [Compound 209, (fluoro(2-(((3S,6S,8S,9aR)-3-(3-(4-fluoropyridin-3-yl)azetidine-1-carbonyl)-8-methyl-5-oxooctahydro-1H-pyrrolo[1,2-a]azepin-6-yl)carbamoyl)benzo[b]thiophen-5-yl)methyl)phosphonic acid]
– | – | < 0.1 | 3 to 30 | CC[C@@H]1CC[C@H](NC(=O)c2cc3cc(C(F)P(=O)(O)O)ccc3s2)C(=O)N2[C@H](CC[C@H]2C(=O)N2CC(c3cnccc3OC)C2)C1 (stereo partly drawn) [Compound 210, ((2-(((3S,6S,9R,10aR)-9-ethyl-3-(3-(4-methoxypyridin-3-yl)azetidine-1-carbonyl)-5-oxodecahydropyrrolo[1,2-a]azocin-6-yl)carbamoyl)benzo[b]thiophen-5-yl)fluoromethyl)phosphonic acid]
